Source: patent US20120301895A1, “METHODS OF MODULATING BINDING OF SON OF SEVENLESS TO PHOSPHATIDIC ACID AND IDENTIFYING COMPOUNDS THAT MODULATE SUCH BINDING” (THE RESEARCH FOUNDATION OF STATE UNIVERSITY OF NEW YORK, priority 2007, published 2012)

How the values were obtained:
[1] = test system: PLD activity in Calu-1 cells; test: In vivo PLD activity in Calu-1 lung cancer cells; format: cell-based, human; conditions: honokiol 20 μM, 4 hr
Description: In FIG. 17A, T24 and Calu1 cells (obtained from the American Type Culture Collection) were plated in DMEM containing 10% serum for 48 hr and then shifted to either 10% serum or 0.5% serum overnight as indicated. Honokiol (20 μM) or control ethanol was then added for 4 hr as indicated. [^3H]-Myristate was added with the honokiol. After 4 hr, BtOH (0.7%) was added for 20 min, at which time the cells were harvested and the level of phosphatidyl-BtOH (P-Bt) was determined as in FIGS. 12A-C. The experiments shown are representative of at least two independent experiments. In FIG. 17B, T24 and Calu-1 cells were plated in DMEM with 10% serum for 48 hr then changed to DMEM containing either 10% or 0.5% serum overnight as indicated. […]
For in vivo PLD activity, cells were plated in 60 mm culture dishes in DMEM with 10% serum at a density that would allow them to grow to about 80% confluence after 2 days, then cells were shifted to DMEM containing 0.5% or 10% serum as indicated in the figure legends overnight. […] Briefly, PLD activity was measured by the release of [methyl-^3H] choline from [choline-methyl-^3H]dipalmitoyl-phosphatidylcholine. […] Free [methyl-^3H] choline was separated from precipitated lipids and proteins by centrifugation and was analyzed by liquid scintillation counting. […]

786-0 cells = test: Apoptosis in 786-O cells; format: cell-based, human
Description: Cell viability was determined by trypan blue exclusion. After various treatments, cells were harvested, washed, and treated with trypan blue at a concentration of 0.4% w/v. After 10 min, trypan blue uptake (dead cells) was determined by counting on a hemocytometer. […] The effect of honokiol on cell viability and cleavage of the caspase 3 substrate poly-(ADP-ribose) polymerase (“PARP”)—an indicator of apoptotic cell death—was examined in the MDA-MB-231 and 786-0 cells. The effect of honokiol on cell viability and PARP cleavage in 0.5% serum was examined after 4 hr and 24 hr honokiol treatment and in 10% serum after 24 hr honokiol treatment in the MDA-MB-231 cells.

C=CCc1ccc(O)c(-c2ccc(O)c(CC=C)c2)c1 [honokiol, Honokiol]
stress-induced PLD activity ([1]; 0.5% serum): suppressed | PLD activity observed in the presence of serum ([1]; 10% serum): little effect | apoptosis (786-0 cells): induced apoptosis
